Experimental data as given in ChEMBL document CHEMBL1201862, “PubChem BioAssay data set” (2004).
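Cells were grown in 96-well plates and exposed to each compound for 48 hours at five concentrations; endpoints were interpolated linearly between bracketing concentrations, or set to the highest concentration if not reached. GI50 marks 50% less growth.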 Activity calls are given as the source filed them. Cut-off read from the data, not from the text of the source: active = GI50 up to about 1.1 µM and inactive = higher.

Key:
Assay in all cases: inhibition of tumour cell growth, NCI panel, 48 h
OVCAR-3 = test system: OVCAR-3
HCT-15 = test system: HCT-15
HCT-116 = test system: HCT-116
SR = test system: SR
KM12 = test system: KM12
SK-OV-3 = test system: SK-OV-3
SK-MEL-28 = test system: SK-MEL-28
T47D = test system: T47D
SW-620 = test system: SW-620
HOP-62 = test system: HOP-62
ACHN = test system: ACHN
CAKI-1 = test system: CAKI-1
A498 = test system: A498
BT-549 = test system: BT-549
RPMI-8226 = test system: RPMI-8226
EKVX = test system: EKVX
MDA-N = test system: MDA-N
CCRF-CEM = test system: CCRF-CEM
TK-10 = test system: TK-10
SNB-19 = test system: SNB-19
OVCAR-8 = test system: OVCAR-8
U-251 = test system: U-251
NCI-H226 = test system: NCI-H226
SF-539 = test system: SF-539
MCF7 = test system: MCF7
COLO 205 = test system: COLO 205
M14 = test system: M14
HL-60 = test system: HL-60
OVCAR-5 = test system: OVCAR-5
IGROV-1 = test system: IGROV-1
MDA-MB-231 = test system: MDA-MB-231
SK-MEL-5 = test system: SK-MEL-5
HCC 2998 = test system: HCC 2998
DU-145 = test system: DU-145
786-0 = test system: 786-0
OVCAR-4 = test system: OVCAR-4
A549 = test system: A549
PC-3 = test system: PC-3
MOLT-4 = test system: MOLT-4
K562 = test system: K562
NCI/ADR-RES = test system: NCI/ADR-RES
NCI-H522 = test system: NCI-H522
HT-29 = test system: HT-29
UACC-62 = test system: UACC-62
LOX IMVI = test system: LOX IMVI
MDA-MB-435 = test system: MDA-MB-435
UACC-257 = test system: UACC-257
SN12C = test system: SN12C
NCI-H23 = test system: NCI-H23
SF-268 = test system: SF-268
UO-31 = test system: UO-31
SK-MEL-2 = test system: SK-MEL-2
SF-295 = test system: SF-295
Malme-3M = test system: Malme-3M
NCI-H460 = test system: NCI-H460
SNB-75 = test system: SNB-75
RXF 393 = test system: RXF 393
HOP-92 = test system: HOP-92

CSc1ncnc2c1cnn2Cc1cnnn1COCC(O)CO (configuration not stated)
GI50 (OVCAR-3): > 100 µM (inactive) | GI50 (HCT-15): > 100 µM | GI50 (HCT-116): > 100 µM (inactive) | GI50 (SR): > 100 µM (inactive) | GI50 (KM12): > 100 µM (inactive) | GI50 (SK-OV-3): > 100 µM (inactive) | GI50 (SK-MEL-28): > 100 µM (inactive) | GI50 (T47D): > 100 µM (inactive) | GI50 (SW-620): > 100 µM (inactive) | GI50 (HOP-62): > 100 µM (inactive) | GI50 (ACHN): > 100 µM (inactive) | GI50 (CAKI-1): > 100 µM (inactive) | GI50 (A498): > 100 µM (inactive) | GI50 (BT-549): > 100 µM (inactive) | GI50 (RPMI-8226): > 100 µM (inactive) | GI50 (EKVX): > 100 µM (inactive) | GI50 (MDA-N): > 100 µM (inactive) | GI50 (CCRF-CEM): > 100 µM (inactive) | GI50 (TK-10): > 100 µM (inactive) | GI50 (SNB-19): > 100 µM (inactive) | GI50 (OVCAR-8): > 100 µM (inactive) | GI50 (U-251): > 100 µM (inactive) | GI50 (NCI-H226): > 100 µM (inactive) | GI50 (SF-539): > 100 µM (inactive) | GI50 (MCF7): > 100 µM (inactive) | GI50 (COLO 205): > 100 µM (inactive) | GI50 (M14): > 100 µM (inactive) | GI50 (HL-60): > 100 µM (inactive) | GI50 (OVCAR-5): > 100 µM (inactive) | GI50 (IGROV-1): > 100 µM (inactive) | GI50 (MDA-MB-231): > 100 µM (inactive) | GI50 (SK-MEL-5): > 100 µM (inactive) | GI50 (HCC 2998): > 100 µM (inactive) | GI50 (DU-145): > 100 µM (inactive) | GI50 (786-0): > 100 µM (inactive) | GI50 (OVCAR-4): > 100 µM (inactive) | GI50 (A549): > 100 µM (inactive) | GI50 (PC-3): > 100 µM (inactive) | GI50 (MOLT-4): > 100 µM (inactive) | GI50 (K562): > 100 µM (inactive) | GI50 (NCI/ADR-RES): > 100 µM (inactive) | GI50 (NCI-H522): 11.1 µM (inactive) | GI50 (HT-29): > 100 µM (inactive) | GI50 (UACC-62): > 100 µM (inactive) | GI50 (LOX IMVI): > 100 µM (inactive) | GI50 (MDA-MB-435): > 100 µM (inactive) | GI50 (UACC-257): > 100 µM (inactive) | GI50 (SN12C): > 100 µM (inactive) | GI50 (NCI-H23): > 100 µM (inactive) | GI50 (SF-268): 13.8 µM (inactive) | GI50 (UO-31): > 100 µM (inactive) | GI50 (SK-MEL-2): > 100 µM (inactive) | GI50 (SF-295): > 100 µM (inactive)

COC(=O)/C=C1/OC(c2ccccc2)=C(Br)C1=O
GI50 (OVCAR-3): > 100 µM (inactive) | GI50 (HCT-15): 10.6 µM | GI50 (HCT-116): 17.9 µM (inactive) | GI50 (SR): 20.8 µM (inactive) | GI50 (KM12): 55.5 µM (inactive) | GI50 (Malme-3M): 49 µM (inactive) | GI50 (SK-OV-3): > 100 µM (inactive) | GI50 (SK-MEL-28): 64.1 µM (inactive) | GI50 (T47D): 45.3 µM (inactive) | GI50 (NCI-H460): 35.9 µM (inactive) | GI50 (SW-620): 18.4 µM (inactive) | GI50 (HOP-62): > 100 µM (inactive) | GI50 (ACHN): 46.8 µM (inactive) | GI50 (CAKI-1): 24.8 µM (inactive) | GI50 (A498): 70.8 µM (inactive) | GI50 (BT-549): 18.7 µM (inactive) | GI50 (RPMI-8226): 31.4 µM (inactive) | GI50 (EKVX): > 100 µM (inactive) | GI50 (MDA-N): 42.1 µM (inactive) | GI50 (CCRF-CEM): 25.8 µM (inactive) | GI50 (TK-10): 80.5 µM (inactive) | GI50 (SNB-75): 45 µM (inactive) | GI50 (SNB-19): 79.1 µM (inactive) | GI50 (OVCAR-8): 29.9 µM (inactive) | GI50 (U-251): 23.2 µM (inactive) | GI50 (NCI-H226): 68.9 µM (inactive) | GI50 (RXF 393): 48.2 µM (inactive) | GI50 (SF-539): 45.9 µM (inactive) | GI50 (MCF7): 34.3 µM (inactive) | GI50 (COLO 205): > 100 µM (inactive) | GI50 (M14): 44.7 µM (inactive) | GI50 (HL-60): 35.2 µM (inactive) | GI50 (OVCAR-5): > 100 µM (inactive) | GI50 (IGROV-1): > 10 µM (inactive) | GI50 (MDA-MB-231): 8.07 µM (inactive) | GI50 (SK-MEL-5): 20.3 µM (inactive) | GI50 (HCC 2998): 56.8 µM (inactive) | GI50 (DU-145): 87.1 µM (inactive) | GI50 (HOP-92): 64.4 µM (inactive) | GI50 (786-0): 25 µM (inactive) | GI50 (OVCAR-4): 55.7 µM (inactive) | GI50 (PC-3): 18.9 µM (inactive) | GI50 (MOLT-4): 28.5 µM (inactive) | GI50 (K562): 21.7 µM (inactive) | GI50 (NCI-H522): 25.1 µM (inactive) | GI50 (HT-29): 20.1 µM (inactive) | GI50 (UACC-62): 20 µM (inactive) | GI50 (LOX IMVI): 24.3 µM (inactive) | GI50 (MDA-MB-435): 38 µM (inactive) | GI50 (UACC-257): 73.3 µM (inactive) | GI50 (SN12C): 37.1 µM (inactive) | GI50 (NCI-H23): 57.5 µM (inactive) | GI50 (SF-268): 49.4 µM (inactive) | GI50 (UO-31): 40 µM (inactive)
